Measurements published in US8884007B2, “Hexenone compounds and medical use thereof” (Institute of Pharmacology and Toxicology Medical Sciences …, priority 2010, dated 2014).

Tests used:
primary cardiomyocytes = assay: Measurement of cell inhibition rate (MTT) on normal primary cardiomyocytes; assay type: cell-based, Wistar sucking mice
Description: The isolation and culture of cardiomyocytes were performed by referring to the differential adhesion method (Kreider, A. Messing, H. Doan, S. U. Kim, R. P. Lisak and D. E. Pleasure, Enrichment of Schwann cell cultures from neonatal rat sciatic nerve by differential adhesion, Brain Res 2 (1981), pp. 433-444). […]
(§1) The isolated primary culture of cardiomyocytes was inoculated in an amount of 10^4 cells per well to a 96-well plate, and the volume of each well was 100 ul (marginal wells were filled with sterile PBS). […] The optical density (OD) value of each well was measured at wavelength of 550 nm by enzyme-linked immunoassay instrument, and each well was repeatedly measured for 5 times and the results were recorded.

[1] = tested on: TG-induced cardiomyocytes apoptosis; assay: Protection against TG-induced cardiomyocytes apoptosis (MTT); assay type: cell-based, Wistar sucking mice
Description: The isolation and culture of cardiomyocytes were performed by referring to the differential adhesion method (Kreider, A. Messing, H. Doan, S. U. Kim, R. P. Lisak and D. E. Pleasure, Enrichment of Schwann cell cultures from neonatal rat sciatic nerve by differential adhesion, Brain Res 2 (1981), pp. 433-444). Wistar sucking mice newborn within 24 h were used, sterilized at skin of ventrum with iodine tincture and ethanol, subjected to thoracotomy using scissors at subxiphoid median line with a deviation to left, heart was taken out after slant thoracotomy and placed in PBS precooled with ice; the heart was softly blown and beaten with 0.01M PBS to remove blood cells and other tissues, then cut into pieces with 0.5 mm^3 size, washed with 0.01M PBS repeatedly for 2-3 times; the pieces were placed in conical flask, added with 4 ml of 0.125% pancretin, 1 ml of 0.1% collagenase II (final concentrations separately being 0.1% and 0.02%), shaken in 37° C. water bath for 10 min, the supernatant was discarded; then 4 ml of 0.125% pancretin and 1 ml of 0.1% collagenase II again, shaken in 37° C. water bath for digestion for 10 min, the supernatant was sucked and transferred to a centrifuge tube, and the supernatant was added with DMEM containing 10% FBS to terminate digestion; the step of shaking and digestion in water bath was repeated for 3-4 times, until the tissue pieces were completely digested; the collected cell suspension was centrifuged under 1000 rpm for 10 min, the supernatant was removed, then a culture medium was added for resuspension; the resuspended cells were inoculated in a cell culture flask, placed in CO2 incubator at 37° C. for incubation for 1.5 h, then the culture medium was sucked out, countered under microscope, then DMEM culture medium containing 10% FBS was used to adjust cell density, inoculated in an amount of 1×10^4 to a 96-well plate, placed in 5% CO2 incubator at 37° C. for 24 h, then half medium was replaced, a culture medium containing 0.1% Brdu was supplementally added; then the medium was replaced once per 48 h, and primary cardiomyocytes were obtained after 4 days of cultivation.
as §1, with “recorded. […]” for “recorded.”

Compound | inhibition at 100 µM (primary cardiomyocytes; Cardiomyocyte, 100 μM group, MTT, 48 h, normal primary cardiomyocytes, read-out: Inhibitive rate of cardiomyocytes (%)) | inhibition at 300 µM (primary cardiomyocytes; Cardiomyocyte, 300 μM group, MTT, 48 h, normal primary cardiomyocytes, read-out: Inhibitive rate of cardiomyocytes (%)) | effect on survival rate of normal cardiomyocyte (primary cardiomyocytes; concentration within 300 μM) | Survival rate of cardiomyocytes (%) ([1]; TG (0.4 uM) + compound 0.3 μM group, pretreatment 30 min before inducing apoptosis) | Survival rate of cardiomyocytes (%) ([1]; TG (0.4 uM) + compound 1 μM group, pretreatment 30 min before inducing apoptosis) | Survival rate of cardiomyocytes (%) ([1]; TG (0.4 uM) + compound 10 μM group, pretreatment 30 min before inducing apoptosis) | Survival rate of cardiomyocytes (%) ([1]; TG intervening group (0.4 uM), TG alone)
O=C(/C=C/c1ccccc1)CC(NC(=S)N1CCOCC1)C(Cl)(Cl)Cl (stereo not shown) [Example 1, (1E)-1-phenyl-5-(1-morpholinylthiocarboxamido)-6,6,6-trichloro-1-ene-3-hexanone] | 2.91 ± 1.88% | 0.76 ± 0.42% | no effect | 76.3 ± 7.6% | 83.3 ± 7.1% | 92.2 ± 5.6% | –
C/C=C(/C)C(=O)O[C@H]1C(C)=C2[C@H]([C@@H]1OC(=O)CCCCCCC)[C@@](C)(OC(C)=O)C[C@H](OC(=O)CCC)[C@@]1(O)[C@H]2OC(=O)[C@@]1(C)O [TG, thapsigargin, reference compound] | – | – | – | – | – | – | 59 ± 1.1%
